Laboratory results taken from patent publication US8962687B2, “Method of treating liver disorders” (priority 2012, dated 2015).
“Also recorded” adds a separate entry of the source.

Tests used:
Assay type in all cases: in vivo, C57BL/6 mice
STAM mice [1] = assay: Alpha-SMA immunostaining in STAM model; settings: mean±SD
Protocol: (§1) For immunohistochemistry, sections were cut from frozen left lateral liver tissues embedded in Tissue-Tek O.C.T. compound and fixed in acetone. Endogenous peroxidase activity was blocked using 0.03% H2O2 for 5 minutes, followed by incubation with Block Ace (Dainippon Sumitomo Pharma, Japan) for 10 minutes. The sections were incubated with a 200-fold dilution of anti-α-SMA (Epitomics, USA) or anti-F4/80 antibody (BMA Biomedicals, Switzerland) 1 hour at room temperature. […] For quantitative analysis of fibrosis area, inflammation area, and semi-quantification of α-SMA, bright field images of Sirius red-stained, F4/80 and α-SMA-immunostained sections were captured around the central vein using a digital camera (DFC280; Leica, Germany) at 200-fold magnification, and the positive areas in 5 fields/section were measured using ImageJ software (National Institute of Health, USA).

CCR2 mRNA = assay: Quantitative RT-PCR of liver, CCR2; settings: relative, mean±SD
Protocol: (§2) Total RNA was extracted from liver samples using RNAiso (Takara Bio, Japan) according to the manufacturer's instructions. One μg of RNA was reverse-transcribed using a reaction mixture containing 4.4 mM MgCl2 (Roche, Switzerland), 40 U RNase inhibitor (Toyobo, Japan), 0.5 mM dNTP (Promega, USA), 6.28 μM random hexamer (Promega), 5× first strand buffer (Promega), 10 mM dithiothreitol (Invitrogen) and 200 U MMLV-RT (Invitrogen) in a final volume of 20 μL. The reaction was carried out for 1 hour at 37° C., followed by 5 minutes at 99° C. Real-time PCR was performed using real-time PCR DICE and SYBR premix Taq (Takara Bio). To calculate the relative mRNA expression level, the expression of each gene was normalized to that of reference gene 36B4 (gene symbol: Rp1p0). Information of PCR-primer sets and the plate layout was described in Table 1.

STAM mice [2] = assay: HE staining and NAFLD Activity Score (NAS) in STAM model of NASH; design: key to NAS (mean ± SD): NAFLD Activity Score per Kleiner et al. 2005 criteria; settings: for Hepatocyte ballooning score 0, number of mice: score 0 = None; for Steatosis score 1, number of mice: score 1 = 5-33%; for Lobular inflammation score 1, number of mice: score 1 = <2 foci/200x; for Hepatocyte ballooning score 1, number of mice: score 1 = Few balloon cells; for Lobular inflammation score 2, number of mice: score 2 = 2-4 foci/200x; for Hepatocyte ballooning score 2, number of mice: score 2 = Many cells/prominent ballooning
Protocol: STAM™ is a model for non-alcoholic steatohepatitis (NASH), symtoms thereof, and related liver disorders, created by the combination of chemical and dietary interventions in C57BL/6 mice. […] For HE staining, sections were cut from paraffin blocks of left lateral liver tissue prefixed in Bouin's solution and stained with Lillie-Mayer's Hematoxylin (Muto Pure Chemicals, Japan) and eosin solution (Wako Pure Chemical Industries). NAS was calculated according to the criteria of Kleiner (Kleiner D E. et al., Hepatology, 2005; 41:1313). To visualize collagen deposition, Bouin's fixed left lateral liver sections were stained using picro-Sirius red solution (Waldeck, Germany).

TNF-α mRNA = assay: Quantitative RT-PCR of liver, TNF-α; settings: relative, mean±SD
Protocol: as §2

STAM mice [3] = assay: Whole blood glucose and plasma ALT/AST in STAM model; settings: mean±SD; for Whole blood glucose: non-fasting
Protocol: Non-fasting blood glucose was measured in whole blood using […], Japan). For plasma biochemistry, blood was collected in polypropylene tubes with anticoagulant (Novo-Heparin, Mochida Pharmaceutical, Japan) and centrifuged at 1,000×g for 15 minutes at 4° C. The supernatant was collected and stored at -80° until use. Plasma ALT and AST levels were measured by FUJI DRI-CHEM 7000 (Fujifilm, Japan).

TIMP-1 mRNA = assay: Quantitative RT-PCR of liver, TIMP-1; settings: relative, mean±SD
Protocol: as §2

STAM mice [4] = assay: Sirius red staining, fibrosis area in STAM model; settings: for fibrosis area (Sirius red-positive area): mean±SD
Protocol: For HE staining, sections were cut from paraffin blocks of left lateral liver tissue prefixed in Bouin's solution and stained with Lillie-Mayer's Hematoxylin (Muto Pure Chemicals, Japan) and eosin solution (Wako Pure Chemical Industries). NAS was calculated according to the criteria of Kleiner (Kleiner D E. et al., Hepatology, 2005; 41:1313). To visualize collagen deposition, Bouin's fixed left lateral liver sections were stained using picro-Sirius red solution (Waldeck, Germany). For quantitative analysis of fibrosis area, inflammation area, and semi-quantification of α-SMA, bright field images of Sirius red-stained, F4/80 and α-SMA-immunostained sections were captured around the central vein using a digital camera (DFC280; Leica, Germany) at 200-fold magnification, and the positive areas in 5 fields/section were measured using ImageJ software (National Institute of Health, USA).

STAM mice [5] = assay: Liver hydroxyproline content in STAM model; settings: mean±SD
Protocol: To quantify liver hydroxyproline content, frozen liver samples (32-40 mg) were processed by an alkaline-acid hydrolysis method as follows. Liver samples were defatted with 100% acetone, dried in the air, dissolved in 2N NaOH at 65° C., and autoclaved at 121° C. for 20 minutes. The lysed samples (400 μL) were acid-hydrolyzed with 400 μL of 6N HCl at 121° C. for 20 minutes, and neutralized with 400 μL of 4N NaOH containing 10 mg/mL activated carbon. AC buffer (2.2M acetic acid/0.48M citric acid, 400 μL) was added to the samples, followed by centrifugation to collect the supernatant. A standard curve of hydroxyproline was constructed with serial dilutions of trans-4-hydroxy-L-proline (Sigma-Aldrich) starting at 16 μg/mL. The prepared samples and standards (each 400 μL) were mixed with 400 μL chloramine T solution (Wako Pure Chemical Industries) and incubated for 25 minutes at room temperature. […] After samples were cooled on ice and centrifuged to remove precipitates, the optical density of each supernatant was measured at 560 nm. The concentrations of hydroxyproline were calculated from the hydroxyproline standard curve. Protein concentrations of liver samples were determined using a BCA protein assay kit (Thermo Fisher Scientific, USA) and used to normalize the calculated hydroxyproline values. Liver hydroxyproline levels were expressed as μg per mg protein.

Alpha-SMA mRNA = assay: Quantitative RT-PCR of liver, Alpha-SMA; settings: relative, mean±SD
Protocol: as §2

MCP-1 mRNA = assay: Quantitative RT-PCR of liver, MCP-1; settings: relative, normalized to 36B4, 30 mg/kg oral once daily, 6-9 wks (MN-001-middle group), mean±SD
Protocol: as §2

STAM mice [6] = assay: F4/80 immunostaining, inflammation area in STAM model; settings: mean±SD
Protocol: as §1

STAM mice [7] = assay: Liver weight and liver-to-body weight ratio in STAM model; settings: mean±SD
Protocol: NASH was induced in 50 male mice by a single subcutaneous injection of 200 μg streptozotocin (STZ, Sigma-Aldrich, USA) solution 2 days after birth and feeding with high fat diet (HFD, 57 kcal % fat, cat#: HFD32, CLEA Japan, Japan) after 4 weeks of age. Ten male littermates, fed with normal diet and without STZ treatment, were used for the normal group. Vehicle, MN-001, and Telmisartan were administered by oral route in a volume of 10 mL/kg. MN-001 was administered at doses of 10, 30, and 100 mg/kg once daily. Telmisartan was administered at dose of 10 mg/kg once daily.

[8] = 10 mg/kg oral once daily, 6-9 wks of age (MN-001-low; Telmisartan groups)
[9] = normalized to 36B4, 10 mg/kg oral once daily, 6-9 wks (MN-001-low; Telmisartan groups)
[10] = 10 mg/kg oral once daily, 6-9 wks, n 10
[11] = 30 mg/kg oral once daily, 6-9 wks of age (MN-001-middle group)
[12] = 100 mg/kg oral once daily, 6-9 wks of age (MN-001-high group)
[13] = normalized to 36B4, 30 mg/kg oral once daily, 6-9 wks (MN-001-middle group)
[14] = normalized to 36B4, 100 mg/kg oral once daily, 6-9 wks (MN-001-high group)
[15] = 30 mg/kg oral once daily, 6-9 wks, n 10
[16] = 100 mg/kg oral once daily, 6-9 wks, n 10

In the case of CCCc1nc2c(C)cc(-c3nc4ccccc4n3C)cc2n1Cc1ccc(-c2ccccc2C(=O)O)cc1 [Telmisartan, reference compound], the α-SMA-positive area (STAM mice [1]; [8]) is reported as 0.12±0.05%, the “CCR2 mRNA expression levels” value (CCR2 mRNA; [9]) is reported as 3.21±0.85 and the “hepatocellular ballooning, HE-stained liver sections, compared with Vehicle” value (STAM mice [2]; [8]) is reported as “marked improvements”. The “inflammatory cell infiltration, HE-stained liver sections, compared with Vehicle” value (STAM mice [2]; 10 mg/kg oral once daily, 6-9 wks of age (Telmisartan group)) was “marked improvements”, the “Steatosis score 0, number of mice” value (STAM mice [2]; 10 mg/kg oral once daily, 6-9 wks, score 0 = <5%, n 10) was 1 and the “Hepatocyte ballooning score 0, number of mice” value (STAM mice [2]; [10]) was 4. The “Steatosis score 1, number of mice” value (STAM mice [2]; [10]) was 9, the “Lobular inflammation score 1, number of mice” value (STAM mice [2]; [10]) was 10 and the “Hepatocyte ballooning score 1, number of mice” value (STAM mice [2]; [10]) was 6. For the same compound, the “TNF-α mRNA expression levels” value (TNF-α mRNA; [9]) was 8.35±2.84, the “Plasma AST” value (STAM mice [3]; [8]) was 190±28 U/L and the “TIMP-1 mRNA expression levels” value (TIMP-1 mRNA; [9]) was 7.82±2.62.

With CCCc1c(SCCCOc2ccc(C(C)=O)c(OCCCC(=O)O)c2CCC)ccc(C(C)=O)c1O [MN-001] the “fibrosis area (Sirius red-positive area)” value (STAM mice [4]; [8]) was 0.76±0.19%, the “fibrosis area (Sirius red-positive area)” value (STAM mice [4]; [11]) was 0.76±0.16% and the “fibrosis area (Sirius red-positive area)” value (STAM mice [4]; [12]) was 0.69±0.18%. The “fibrosis area compared with Vehicle” value (STAM mice [4]; MN-001 treatment groups together (10, 30, 100 mg/kg oral once daily, 6-9 wks), dose dependent manner) was “significantly reduced; also recorded: significantly decreased”, the α-SMA-positive area (STAM mice [1]; [11]) was 0.11±0.04% and the Liver hydroxyproline content (STAM mice [5]; [8]) was 0.78±0.34 μg/mg protein. For the same compound, the Liver hydroxyproline content (STAM mice [5]; [11]) was 0.63±0.12 μg/mg protein, the “Alpha-SMA mRNA expression levels” value (Alpha-SMA mRNA; [9]) was 36.8±111 and the “Alpha-SMA mRNA expression levels” value (Alpha-SMA mRNA; [13]) was 3.13±2.52. The “Alpha-SMA mRNA expression levels” value (Alpha-SMA mRNA; [14]) was 5.78±3.45, the “CCR2 mRNA expression levels” value (CCR2 mRNA; [14]) was 3.86±1.43 and the “MCP-1 mRNA expression levels” value (MCP-1 mRNA) was 4.00±7.78. The “NAS (mean ± SD)” value (STAM mice [2]; [8]) was 4.7±0.5, the “hepatocellular ballooning, HE-stained liver sections, compared with Vehicle” value (STAM mice [2]; [8]) was “moderate decrease” and the “Steatosis score 1, number of mice” value (STAM mice [2]; [10]) was 10. For the same compound, the “Lobular inflammation score 1, number of mice” value (STAM mice [2]; [10]) was 1, the “Hepatocyte ballooning score 1, number of mice” value (STAM mice [2]; [10]) was 2 and the “Lobular inflammation score 2, number of mice” value (STAM mice [2]; [10]) was 9. For the same compound, the “Hepatocyte ballooning score 2, number of mice” value (STAM mice [2]; [10]) was 8, the “NAS (mean ± SD)” value (STAM mice [2]; [11]) was 4.7±0.5 and the “hepatocellular ballooning, HE-stained liver sections, compared with Vehicle” value (STAM mice [2]; [11]) was “moderate decrease”. For the same compound, the “Steatosis score 1, number of mice” value (STAM mice [2]; [15]) was 10, the “Hepatocyte ballooning score 1, number of mice” value (STAM mice [2]; [15]) was 3 and the “Lobular inflammation score 2, number of mice” value (STAM mice [2]; [15]) was 10. For the same compound, the “Hepatocyte ballooning score 2, number of mice” value (STAM mice [2]; [15]) was 7, the “hepatocellular ballooning, HE-stained liver sections / ballooning score, compared with Vehicle” value (STAM mice [2]; [12]) was “significantly reduced; also recorded: marked improvements” and the “inflammatory cell infiltration, HE-stained liver sections, compared with Vehicle” value (STAM mice [2]; [12]) was “moderate improvements”. For the same compound, the “Lobular inflammation score 0, number of mice” value (STAM mice [2]; 100 mg/kg oral once daily, 6-9 wks, score 0 = No foci, n 10) was 1, the “Hepatocyte ballooning score 0, number of mice” value (STAM mice [2]; [16]) was 2 and the “Steatosis score 1, number of mice” value (STAM mice [2]; [16]) was 10. The “Lobular inflammation score 1, number of mice” value (STAM mice [2]; [16]) was 4, the “Hepatocyte ballooning score 1, number of mice” value (STAM mice [2]; [16]) was 7 and the “Lobular inflammation score 2, number of mice” value (STAM mice [2]; [16]) was 5. For the same compound, the “Hepatocyte ballooning score 2, number of mice” value (STAM mice [2]; [16]) was 1, the “TNF-α mRNA expression levels” value (TNF-α mRNA; [9]) was 3.42±2.53 and the “TNF-α mRNA expression levels” value (TNF-α mRNA; [13]) was 7.97±9.30. The “TNF-α mRNA expression levels” value (TNF-α mRNA; [14]) was 9.74±3.34, the “inflammation area (F4/80-positive area)” value (STAM mice [6]; [11]) was 6.33±0.84% and the “inflammation area (F4/80-positive area)” value (STAM mice [6]; [12]) was 6.31±0.76%. For the same compound, the Mean liver weight (STAM mice [7]; [8]) was 1567 ± 165 mg, the Mean liver weight (STAM mice [7]; [12]) was 1480 ± 145 mg and the “Plasma ALT” value (STAM mice [3]; [8]) was 71±60 U/L. The “Plasma ALT” value (STAM mice [3]; [11]) was 48±23 U/L, the “Plasma ALT” value (STAM mice [3]; [12]) was 54±11 U/L and the Whole blood glucose (STAM mice [3]; [8]) was 614 ± 98 mg/dL. The Whole blood glucose (STAM mice [3]; [11]) was 609 ± 78 mg/dL, the Whole blood glucose (STAM mice [3]; [12]) was 671 ± 124 mg/dL and the “TIMP-1 mRNA expression levels” value (TIMP-1 mRNA; [14]) was 10.6±5.83.
